Source: ChEMBL document CHEMBL3608223, “Quinolizidine alkaloids reduced mortality in EV71-infected mice by compensating for the levels of T cells” (2015)
The source made the active and inactive calls. No cut-off for these calls is given here.

Tests used:
Mus musculus [1] = test: Immunoregulatory activity in […] mouse assessed as increase in CD3+ T cells at 60 mg/kg, ip once daily for 8 days by flow cytometry; type: functional, organism-based; conditions: T-cell
Enterovirus A71 [2] = test: Antiviral activity against human enterovirus 71 infected in ICR mouse assessed as increase in survival rate at 15 mg/kg, ip qd for 8 days dosed 2 hrs post infection and measured at 14 days post infection relative to control; type: functional, organism-based
Mus musculus [3] = test: Immunoregulatory activity in […] mouse assessed as increase in CD4+ T cells at 60 mg/kg, ip once daily for 8 days by flow cytometry; type: functional, organism-based; conditions: T-cell
Mus musculus [4] = test: Immunoregulatory activity in […] mouse assessed as reduction in NK cells at 60 mg/kg, ip once daily for 8 days by flow cytometry; type: functional, organism-based
Mus musculus [5] = test: Immunoregulatory activity in […] mouse assessed as increase in CD8+ T cells at 60 mg/kg, ip once daily for 8 days by flow cytometry; type: functional, organism-based; conditions: T-cell
Mus musculus [6] = test: Immunoregulatory activity in […] mouse assessed as reduction in DC cells at 60 mg/kg, ip once daily for 8 days by flow cytometry; type: functional, organism-based
Mus musculus [7] = test: Immunoregulatory activity in […] mouse assessed as reduction in B cells at 60 mg/kg, ip once daily for 8 days by flow cytometry; type: functional, organism-based
Enterovirus A71 [8] = test: Antiviral activity against human enterovirus 71 infected in ICR mouse assessed as reduction in mouse body weight loss at 15 mg/kg, ip qd for 8 days dosed 2 hrs post infection; type: functional, organism-based
Enterovirus A71 [9] = test: Antiviral activity against human enterovirus 71 infected in ICR mouse assessed as mouse recovery from infection in 15 mg/kg, ip qd for 8 days dosed 2 hrs post infection and measured at 14 days post infection; type: functional, organism-based
Mus musculus [10] = test: Immunoregulatory activity in […] mouse infected with human enterovirus 71 assessed as increase in CD3+ T cells at 15 mg/kg, ip once daily for 8 days by flow cytometry and measured at 8 days post infection; type: functional, organism-based; conditions: T-cell
Enterovirus A71 [11] = test: Antiviral activity against human enterovirus 71 infected in ICR mouse assessed as increase in survival rate at 30 mg/kg, ip qd for 8 days dosed 2 hrs post infection and measured at 14 days post infection; type: functional
Enterovirus A71 [12] = test: Antiviral activity against human enterovirus 71 infected in ICR mouse assessed as reduction in viral infection related clinical scores at 15 mg/kg, ip qd for 8 days dosed 2 hrs post infection and measured at 8 days post infection; type: functional, organism-based
Enterovirus A71 [13] = test: Antiviral activity against human enterovirus 71 infected in ICR mouse assessed as reduction in viral infection-induced phenotypic changes by measuring ruffled hair incidences at 15 mg/kg, ip qd for 8 days dosed 2 hrs post infection and measured at 8 days post infection; type: functional, organism-based
Enterovirus A71 [14] = test: Antiviral activity against human enterovirus 71 infected in ICR mouse assessed as increase in survival rate at 7.5 mg/kg, ip qd for 8 days dosed 2 hrs post infection and measured at 14 days post infection; type: functional
Mus musculus [15] = test: Immunoregulatory activity in […] mouse infected with human enterovirus 71 assessed as increase in CD4+ T cells at 15 mg/kg, ip once daily for 8 days by flow cytometry and measured at 8 days post infection; type: functional, organism-based; conditions: T-cell
Mus musculus [16] = test: Immunoregulatory activity in […] mouse infected with human enterovirus 71 assessed as increase in CD8+ T cells at 15 mg/kg, ip once daily for 8 days by flow cytometry and measured at 8 days post infection; type: functional, organism-based; conditions: T-cell
Enterovirus A71 [17] = test: Antiviral activity against human enterovirus 71 infected in ICR mouse assessed as reduction in viral replications in muscle at 15 mg/kg, ip qd for 8 days dosed 2 hrs post infection and measured at 8 days post infection by qRT-PCR method; type: functional, organism-based
Enterovirus A71 [18] = test: Antiviral activity against human enterovirus 71 infected in ICR mouse assessed as reduction in viral infection-induced phenotypic changes by measuring paralysis incidences at 15 mg/kg, ip qd for 8 days dosed 2 hrs post infection and measured at 8 days post infection; type: functional, organism-based
Enterovirus A71 [19] = test: Antiviral activity against human enterovirus 71 infected in ICR mouse assessed as increase in survival rate at 15 mg/kg, ip qd for 8 days dosed 2 hrs post infection and measured at 14 days post infection; type: functional
Enterovirus A71 [20] = test: Antiviral activity against human enterovirus 71 infected in ICR mouse assessed as reduction in viral infection realted clinical scores at 15 mg/kg, ip qd for 8 days dosed 2 hrs post infection; type: functional, organism-based
Enterovirus A71 [21] = test: Antiviral activity against human enterovirus 71 infected in ICR mouse assessed as increase in survival rate at 50 mg/kg, ip qd for 8 days dosed 2 hrs post infection and measured at 14 days post infection; type: functional

Structure (SMILES)	Activity (Mus musculus [1])	Activity (Enterovirus A71 [2])	Activity (Mus musculus [3])	Activity (Mus musculus [4])	Activity (Mus musculus [5])	Activity (Mus musculus [6])	Activity (Mus musculus [7])	other results
O=C1CCC[C@@H]2[C@H]3CCCN4CCC[C@H](CN12)[C@@H]34	Active	Active	Active	Active	Active	Active	Active	
O=C1C=CC[C@@H]2[C@H]3CCCN4CCC[C@@H](CN12)[C@@H]34	Active	Active	Active	Active	Active	Active	Active	
O=C1C=CC[C@@H]2[C@H]3CCC[N+]4([O-])CCC[C@@H](CN12)[C@@H]34 (stereo partly specified) [OXYSOPHOCARPINE]	Active	Active	Active	Active	Active	Active	Active	Activity (Enterovirus A71 [8]): Active; Activity (Enterovirus A71 [9]): Active; Activity (Mus musculus [10]): Active; Activity (Enterovirus A71 [11]): 25%; Activity (Enterovirus A71 [12]): Active; Activity (Enterovirus A71 [13]): Active; Activity (Enterovirus A71 [14]): 25%; Activity (Mus musculus [15]): Active; Activity (Mus musculus [16]): Active; Activity (Enterovirus A71 [17]): Active; Activity (Enterovirus A71 [18]): Active; Activity (Enterovirus A71 [19]): 30%; Activity (Enterovirus A71 [20]): Active
O=C1CCC[C@@H]2[C@H]3CCCN4CCC[C@@H](CN12)[C@@H]34	Active	Active	Active	Active	Active	Active	Active	
O=c1cccc2n1C[C@@H]1CCCN3CCC[C@H]2[C@H]13	Active	Active	Active	Active	Active	Active	Active	
O=C1CCC[C@@H]2[C@H]3CCC[N+]4([O-])CCC[C@@H](CN12)[C@@H]34 (stereo partly specified)	Active	Active	Active	Active	Active	Active	Active	
NC(=O)c1ncn([C@@H]2O[C@H](CO)[C@@H](O)[C@H]2O)n1 [RIBAVIRIN]								Activity (Enterovirus A71 [21]): 15%
